Results as given in patent US20240174622A1, “COMPOUND AND RADIOACTIVE LABELING COMPOUND” (NIHON MEDI-PHYSICS CO., LTD., priority 2021, published 2024).

Key:
[1] = molecular target: human serum albumin (HSA) (Homo sapiens, UniProt P02768); assay: Evaluation of binding to albumin (HSA solution, PBS control); conditions: left to stand in HSA solution (45 mg/mL)
Experimental: Thereafter, the reaction liquids were added to a spin column (Sephadex G-100; manufactured by Cytiva), and centrifuged at 1500×g at 4° C. for 2 minutes. After separation, the radioactivity for each of the column and the eluate was measured with a gamma counter.
When a compound to be evaluated binds to albumin to form a composite, the compound passes through the column because of the increased molecular size.
As in Examples described above, PBS and human albumin were used to evaluate binding to albumin.
Thereafter, the reaction liquid was added to a spin column (Sephadex G-50; manufactured by Cytiva), and centrifuged at 1500×g at 4° C. for 2 minutes. After separation, the radioactivity of the column and the eluate was measured with a gamma counter.

[2] = test system: LNCaP tumor-transplanted mouse; assay: Internal radioactivity distribution using LNCaP tumor-transplanted mouse; format: in vivo
Experimental: (§1) The animal test was performed in compliance with the guidelines of Kyoto University Animal Experiment Committee. Male CB17/IcrJcl-Prkdc^scid mice were purchased from CLEA Japan, Inc. The animals were kept under 12 h/12 h, day/night cycle conditions and fed ad libitum with food and water. LNCaP cells (1.0×10^7 cells/mouse) or PC-3 cells (1.0×10^7 cells/mouse) were suspended in a mixture of PBS and Matrigel manufactured by Corning Life Sciences (1:1, 150 μL) and the suspension was subcutaneously transplanted to the right shoulder of mice under isoflurane anesthesia. Thereafter, the mice were kept for 40 to 60 days.
LNCaP or PC-3 tumor-implanted mice were administered saline solutions (185 kBq, 100 μL) of [^111In]In-PSMA-DA1 or [^111In]In-PSMA-DB from the tail vein (n=3 each). Mice were euthanized 1, 4, 24, 48, 96, and 192 hours after administration. Thereafter, blood and each organ were recovered, and the mass and radioactivity of the organs were measured.
The percentage (% ID) of the radioactivity amount to the administered radioactivity amount (injected dose) is shown as the value (% ID/g) divided by the blood mass or the organ mass (g).
LNCaP tumor-implanted mice prepared by the same method as in Example 1-1 were administered a saline solution (241 kBq/100 μL) of [^111In]In-PtDA from the tail vein (n=3). Mice were euthanized 1, 24, and 48 hours after administration. Thereafter, blood and each organ were recovered, and the mass and radioactivity of the organs were measured.
LNCaP tumor-implanted mice prepared by the same method as in Example 1-1 were administered a saline solution (259 kBq/100 μL each) of each of the radiolabeled compounds in Examples 3-1 to 3-3 or Comparative Examples 2-1 to 2-2 from the tail vein (n=2 to 3). Mice were euthanized 1, 4, 24, 48, 96, and 192 hours after administration. Thereafter, blood and each organ were recovered, and the mass and radioactivity of the organs were measured.
as §1, with “LNCaP cells (4.3×10^6 cells/mouse) or” for “LNCaP cells (1.0×10^7 cells/mouse) or”, “PC-3 cells (3.3×10^6 cells/mouse) were” for “PC-3 cells (1.0×10^7 cells/mouse) were”, “shoulder of CB17/IcrJcl-Prkdc^scid mice under” for “shoulder of mice under”
Mice were euthanized 1, 4, 24, 48, 96, and 192 hours after administration. Thereafter, blood and each organ were recovered, and the mass and radioactivity of the organs were measured.
The results are shown in Table 12 (Mean value±standard deviation, n=3).

human serum albumin (HSA), sequence (P02768 25-609): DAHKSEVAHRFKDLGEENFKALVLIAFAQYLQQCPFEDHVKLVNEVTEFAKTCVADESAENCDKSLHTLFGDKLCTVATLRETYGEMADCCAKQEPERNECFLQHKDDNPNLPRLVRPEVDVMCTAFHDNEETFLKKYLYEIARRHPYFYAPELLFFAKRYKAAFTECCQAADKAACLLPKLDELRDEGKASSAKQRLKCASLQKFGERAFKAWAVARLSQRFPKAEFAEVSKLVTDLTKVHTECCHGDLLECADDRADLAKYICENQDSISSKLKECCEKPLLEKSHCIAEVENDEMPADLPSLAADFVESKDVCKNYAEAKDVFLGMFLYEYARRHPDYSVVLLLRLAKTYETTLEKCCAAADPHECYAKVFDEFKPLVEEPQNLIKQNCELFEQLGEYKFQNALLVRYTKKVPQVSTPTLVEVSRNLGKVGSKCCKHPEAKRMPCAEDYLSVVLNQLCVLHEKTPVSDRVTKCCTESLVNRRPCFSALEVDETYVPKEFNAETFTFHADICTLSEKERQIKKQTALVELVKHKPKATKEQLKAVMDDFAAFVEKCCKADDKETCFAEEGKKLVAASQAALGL

radioactivity in the eluate (in words) [1]: low | Blood ([2]; 1 h after administration): 2.30 ± 0.28 % ID/g | Brain ([2]; 1 h after administration): 0.05 ± 0.00 % ID/g | Heart ([2]; 1 h after administration): 0.70 ± 0.03 % ID/g | Intestine ([2]; 1 h after administration): 0.47 ± 0.03 % ID/g | Kidney ([2]; 1 h after administration): 214 ± 53.0 % ID/g | LNCaP Tumor ([2]; 1 h after administration): 1.06 ± 0.21 % ID/g | Liver ([2]; 1 h after administration): 0.60 ± 0.07 % ID/g | Lung ([2]; 1 h after administration): 1.75 ± 0.18 % ID/g | Muscle ([2]; 1 h after administration): 0.28 ± 0.06 % ID/g | Pancreas ([2]; 1 h after administration): 0.57 ± 0.14 % ID/g | Spleen ([2]; 1 h after administration): 6.83 ± 1.70 % ID/g | Stomach (% ID) ([2]; 1 h after administration): 0.17 ± 0.02 % ID | Blood ([2]; 4 h after administration): 1.24 ± 0.15 % ID/g | Brain ([2]; 4 h after administration): 0.04 ± 0.00 % ID/g | Heart ([2]; 4 h after administration): 0.47 ± 0.08 % ID/g | Intestine ([2]; 4 h after administration): 0.66 ± 0.08 % ID/g | Kidney ([2]; 4 h after administration): 125 ± 89.2 % ID/g | LNCaP Tumor ([2]; 4 h after administration): 0.69 ± 0.30 % ID/g | Liver ([2]; 4 h after administration): 0.69 ± 0.05 % ID/g | Lung ([2]; 4 h after administration): 1.03 ± 0.13 % ID/g | Muscle ([2]; 4 h after administration): 0.11 ± 0.04 % ID/g | Pancreas ([2]; 4 h after administration): 0.50 ± 0.13 % ID/g | Spleen ([2]; 4 h after administration): 4.76 ± 1.17 % ID/g | Stomach (% ID) ([2]; 4 h after administration): 0.11 ± 0.03 % ID | Blood ([2]; 24 h after administration): 0.20 ± 0.02 % ID/g | Brain ([2]; 24 h after administration): 0.02 ± 0.01 % ID/g | Heart ([2]; 24 h after administration): 0.21 ± 0.01 % ID/g | Intestine ([2]; 24 h after administration): 0.32 ± 0.02 % ID/g | Kidney ([2]; 24 h after administration): 13.5 ± 0.43 % ID/g | LNCaP Tumor ([2]; 24 h after administration): 0.28 ± 0.02 % ID/g | Liver ([2]; 24 h after administration): 0.69 ± 0.05 % ID/g | Lung ([2]; 24 h after administration): 0.34 ± 0.05 % ID/g | Muscle ([2]; 24 h after administration): 0.10 0.00 % ID/g | Pancreas ([2]; 24 h after administration): 0.28 ± 0.03 % ID/g | Spleen ([2]; 24 h after administration): 2.74 ± 0.07 % ID/g | Stomach (% ID) ([2]; 24 h after administration): 0.05 ± 0.00 % ID | Blood ([2]; 48 h after administration): 0.09 ± 0.03 % ID/g | Brain ([2]; 48 h after administration): 0.03 ± 0.01 % ID/g | Heart ([2]; 48 h after administration): 0.18 ± 0.05 % ID/g | Intestine ([2]; 48 h after administration): 0.32 ± 0.06 % ID/g | Kidney ([2]; 48 h after administration): 25.2 ± 17.1 % ID/g | LNCaP Tumor ([2]; 48 h after administration): 0.30 ± 0.11 % ID/g | Liver ([2]; 48 h after administration): 0.80 ± 0.13 % ID/g | Lung ([2]; 48 h after administration): 0.32 ± 0.04 % ID/g | Muscle ([2]; 48 h after administration): 0.10 ± 0.03 % ID/g | Pancreas ([2]; 48 h after administration): 0.38 ± 0.06 % ID/g | Spleen ([2]; 48 h after administration): 2.62 ± 0.79 % ID/g | Stomach (% ID) ([2]; 48 h after administration): 0.09 ± 0.06 % ID | Blood ([2]; 96 h after administration): 0.06 ± 0.02 % ID/g | Brain ([2]; 96 h after administration): 0.03 ± 0.00 % ID/g | Heart ([2]; 96 h after administration): 0.28 ± 0.06 % ID/g | Intestine ([2]; 96 h after administration): 0.16 ± 0.07 % ID/g | Kidney ([2]; 96 h after administration): 15.1 ± 4.76 % ID/g | LNCaP Tumor ([2]; 96 h after administration): 0.32 ± 0.09 % ID/g | Liver ([2]; 96 h after administration): 0.77 ± 0.07 % ID/g | Lung ([2]; 96 h after administration): 0.39 ± 0.06 % ID/g | Muscle ([2]; 96 h after administration): 0.09 ± 0.03 % ID/g | Pancreas ([2]; 96 h after administration): 0.32 ± 0.02 % ID/g | Spleen ([2]; 96 h after administration): 2.47 ± 0.60 % ID/g | Stomach (% ID) ([2]; 96 h after administration): 0.07 ± 0.03 % ID | Blood ([2]; 192 h after administration): 0.01 % ID/g | Brain ([2]; 192 h after administration): 0.03 % ID/g | Heart ([2]; 192 h after administration): 0.22 % ID/g | Intestine ([2]; 192 h after administration): 0.06 % ID/g | Kidney ([2]; 192 h after administration): 2.79 % ID/g | LNCaP Tumor ([2]; 192 h after administration): 0.15 % ID/g | Liver ([2]; 192 h after administration): 0.63 % ID/g | Lung ([2]; 192 h after administration): 0.20 % ID/g | Muscle ([2]; 192 h after administration): 0.07 % ID/g | Pancreas ([2]; 192 h after administration): 0.37 % ID/g | Spleen ([2]; 192 h after administration): 1.05 % ID/g | Stomach (% ID) ([2]; 192 h after administration): 0.02 % ID
SMILES: O=C([O-])CN(CCN(CCc1ccc(NC(=O)CCCCCNC(=O)CCC(=O)NCCCC[C@H](NC(=O)N[C@@H](CCC(=O)O)C(=O)O)C(=O)O)cc1)CCN(CC(=O)[O-])Cc1cccc(C(=O)[O-])n1)Cc1cccc(C(=O)[O-])n1.[111In+3] [[^111In]In-Neunpa-1, reference compound]
